The target of the assay is T1, CYP1A2 (Homo sapiens, UniProt P05177).
T1 construct: pre-incubated with the human liver microsome solutions containing 5 enzyme mixed substrates; from tissue; host or cells: human liver microsomes
T1 sequence (P05177 1-516): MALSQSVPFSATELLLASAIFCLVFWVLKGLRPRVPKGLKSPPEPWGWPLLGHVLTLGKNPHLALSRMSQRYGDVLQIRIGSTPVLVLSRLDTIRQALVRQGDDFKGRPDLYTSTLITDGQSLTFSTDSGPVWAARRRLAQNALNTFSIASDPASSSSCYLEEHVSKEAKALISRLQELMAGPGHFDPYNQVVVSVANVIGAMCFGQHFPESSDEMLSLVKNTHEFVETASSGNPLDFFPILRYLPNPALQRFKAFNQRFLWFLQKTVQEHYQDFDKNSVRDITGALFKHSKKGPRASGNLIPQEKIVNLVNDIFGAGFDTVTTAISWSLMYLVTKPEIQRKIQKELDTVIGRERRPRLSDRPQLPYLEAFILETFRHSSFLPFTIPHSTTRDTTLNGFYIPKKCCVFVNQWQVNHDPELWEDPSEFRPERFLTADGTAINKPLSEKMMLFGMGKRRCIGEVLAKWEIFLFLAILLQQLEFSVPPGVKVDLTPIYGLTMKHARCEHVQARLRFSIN
Description: Cytochrome P450 isoenzyme inhibition test, human liver microsomes: CYP1A2. In kind it is in vitro ADME. Particulars: human liver microsomes 0.1 mg/mL; read-out: IC50, inhibitory activity on CYP1A2. How it is done: 9. Cytochrome P450 Isoenzyme Inhibition Test Experimental objective: The inhibitory effect of the test compound on the activity of human liver microsomal cytochrome P450 isoenzyme (CYP1A2, CYP2C19, CYP2D6 and CYP3A4) was determined. Experimental operation: The test compound at an incubation concentration of 0, 0.03, 0.1, 0.3, 1, 3, 10, 30 and 100 μM was pre-incubated with the human liver microsome solutions containing 5 enzyme mixed substrates (liver microsome concentration: 0.1 mg/mL) in a water bath at 37° C. for 10 min, respectively, and then a coenzyme factor (NADPH) was added to start the reaction. After incubation in a water bath at 37° C. for 10 min, the reaction was terminated by adding glacial acetonitrile solution containing an internal standard, shaken for 1 min, centrifuged at 4° C. and 10,000 rpm for 10 min, and the supernatant was taken for LC/MS/MS analysis. The amount of metabolites produced by each CYP enzyme substrate was detected. The activity of each CYP isoenzyme was reflected by the production rate of each metabolite. […]
For orientation: Liver microsomes are vesicles of endoplasmic reticulum, rich in cytochrome P450 enzymes.

By pIC50 is commonly meant the IC50 on a negative log10 scale, so that one unit is a factor of ten.

pIC50: −log10 of the molar value.

Turning to `N#Cc1ccc(COc2cccc(-c3ccc(Cc4nc5sc(C(=O)O)cc5n4C[C@@H]4CCO4)c(F)c3)n2)c(F)c1` [Compound 6, (S)-2-(4-(6-((4-cyano-2-fluorobenzyl)oxy)pyridin-2-yl)-2-fluorobenzyl)-1-(oxetan-2-ylmethyl)-1H-thieno[2,3-d]imidazole-5-carboxylic acid], the pIC50 was less than 4.30.

These data come from US20240124470A1, “FIVE-MEMBERED RING DERIVATIVE AND MEDICAL USE THEREOF” (SICHUAN HAISCO PHARMACEUTICAL CO., LTD., priority 2020, published 2024).
